Biological target: mTOR/GbL/Raptor (mTORC1) (Homo sapiens, UniProt P42345)
Assay: mTOR/GbL/Raptor (mTORC1) ELISA assay
Format: biochemical
Details: phosphorylation of 4E-BP1; 0.2 nM mTORC1, 10 μM ATP, 50 nM NHis-tagged 4E-BP1
Description: mTOR/GbL/Raptor (mTORC1) ELISA Assay
The measurement of mTORC1 enzyme activity was performed in an ELISA assay format following the phosphorylation of 4E-BP1 protein. All experiments were performed in the 384-well format. Generally, 0.5 μL DMSO containing varying concentrations of the test compound was mixed with 15 μL enzyme solution. Kinase reactions were initiated with the addition of 15 μL of substrates-containing solution. The assay conditions were as follows; 0.2 nM mTORC1, 10 μM ATP and 50 nM NHis-tagged 4E-BP1 in 20 mM Hepes, pH 7.2, 1 mM DTT, 50 mM NaCl, 10 mM MnCl2, 0.02 mg/mL BSA, 0.01% CHAPS, 50 mM β-glycerophosphate. Following an incubation of 120 minutes at ambient temperature, 20 μL of the reaction volume was transferred to a Ni-Chelate-coated 384-well plate. The binding step of the 4E-BP1 protein proceeded for 60 minutes, followed by washing 4 times each with 50 μL of Tris-buffered saline solution (TBS). Anti-phospho-4E-BP1 rabbit-IgG (20 μL, 1:5000) in 5% BSA-TBST (0.2% Tween-20 in TBS) was added and further incubated for 60 minutes. Incubation with a secondary HRP-tagged anti-IgG was similarly performed after washing off the primary antibody (4 washes of 50 μL). Following the final wash step with TBST, 20 μL of SuperSignal ELISA Femto (Pierce Biotechnology) was added and the luminescence measured using an EnVision plate reader.

Row | SMILES | IC50
1 | Cc1nc2ccc(-c3ccc4c(c3)CN(c3nc(CO)nc(C)c3C(C)C)CCO4)cc2[nH]1 [Compound 5, {4-methyl-6-[7-(2-methyl-1H-benzimidazol-5-yl)-2,3-dihydro-1,4-benzoxazepin-4(5H)-yl]-5-(1-methylethyl)pyrimidin-2-yl}methanol] | ≤ 100 nM
2 | CC1(C)CCc2nc(N)nc(N3CCOc4ccc(-c5ccc6[nH]cnc6c5)cc4C3)c2C1 [Compound 27, 4-[7-(1H-benzimidazol-5-yl)-2,3-dihydro-1,4-benzoxazepin-4(5H)-yl]-6,6-dimethyl-5,6,7,8-tetrahydroquinazolin-2-amine] | ≤ 100 nM
3 | Cc1nc2cc(-c3ccc4c(c3)CN(c3nc(CN(C)C)nc(C)c3CCCF)CCO4)ccc2[nH]1 [Compound 22, 1-{5-(3-fluoropropyl)-4-methyl-6-[7-(2-methyl-1H-benzimidazol-5-yl)-2,3-dihydro-1,4-benzoxazepin-4(5H)-yl]pyrimidin-2-yl}-N,N-dimethylmethanamine] | 500 to 2500 nM
4 | COCCc1c(C)nc(CN(C)C)nc1N1CCOc2ccc(-c3ccc4nc(C)[nH]c4c3)cc2C1 [Compound 1, N,N-dimethyl-1-{4-methyl-6-[7-(2-methyl-1H-benzimidazol-6-yl)-2,3-dihydro-1,4-benzoxazepin-4(5H)-yl]-5-[2-(methyloxy)ethyl]pyrimidin-2-yl}methanamine] | 500 to 2500 nM
5 | CCCc1c(C)nc(CN(C)C)nc1N1CCOc2ccc(-c3ccc4nc(C)[nH]c4c3)cc2C1 [Compound 32, N,N-dimethyl-1-{4-methyl-6-[7-(2-methyl-1H-benzimidazol-6-yl)-2,3-dihydro-1,4-benzoxazepin-4(5H)-yl]-5-propylpyrimidin-2-yl}methanamine] | 500 to 2500 nM
6 | CCNc1nc2cc(-c3ccc4c(c3)CN(c3nc(N)nc(C)c3C(C)C)CCO4)ccc2[nH]1 [Compound 42, 5-{4-[2-amino-6-methyl-5-(1-methylethyl)pyrimidin-4-yl]-2,3,4,5-tetrahydro-1,4-benzoxazepin-7-yl}-N-ethyl-1H-benzimidazol-2-amine] | ≤ 100 nM
7 | Cc1nc2cc(-c3ccc4c(c3)CN(c3nc(N)nc(C)c3C(C)C)CCO4)cnc2[nH]1 [Compound 50, 4-methyl-5-(1-methylethyl)-6-[7-(2-methyl-3H-imidazo[4,5-b]pyridin-6-yl)-2,3-dihydro-1,4-benzoxazepin-4(5H)-yl]pyrimidin-2-amine] | ≤ 100 nM
8 | CC(=O)NCc1nc2c(c(N3CCOc4ccc(-c5ccc6[nH]c(C)nc6c5)cc4C3)n1)CC(C)(C)CC2 [Compound 26, N-({6,6-dimethyl-4-[7-(2-methyl-1H-benzimidazol-5-yl)-2,3-dihydro-1,4-benzoxazepin-4(5H)-yl]-5,6,7,8-tetrahydroquinazolin-2-yl}methyl)acetamide] | ≤ 100 nM
9 | Cc1nc2cc(-c3ccc4c(c3)CN(c3nc(CN(C)C)nc(C)c3Br)CCO4)ccc2[nH]1 [Compound 30, 1-{5-bromo-4-methyl-6-[7-(2-methyl-1H-benzimidazol-5-yl)-2,3-dihydro-1,4-benzoxazepin-4(5H)-yl]pyrimidin-2-yl}-N,N-dimethylmethanamine] | 500 to 2500 nM
10 | COc1ccc2c(N3CCOc4ccc(-c5cnc6[nH]cnc6c5)cc4C3)nc(CN(C)C)nc2c1 [Compound 49, 1-{4-[7-(3H-imidazo[4,5-b]pyridin-6-yl)-2,3-dihydro-1,4-benzoxazepin-4(5H)-yl]-7-(methyloxy)quinazolin-2-yl}-N,N-dimethylmethanamine] | 500 to 2500 nM
11 | Cc1nc2cc(-c3ccc4c(c3)CN(c3nc(NCCCN(C)C)nc(C)c3Cc3ccc(F)cc3)CCO4)ccc2[nH]1 [Compound 13, N′-{5-[(4-fluorophenyl)methyl]-4-methyl-6-[7-(2-methyl-1H-benzimidazol-5-yl)-2,3-dihydro-1,4-benzoxazepin-4(5H)-yl]pyrimidin-2-yl}-N,N-dimethylpropane-1,3-diamine] | ≤ 100 nM
12 | Cc1nc2cc(-c3ccc4c(c3)CN(c3nc(CN(C)C)nc(C)c3CC(C)C)CCO4)ccc2[nH]1 [Compound 23, N,N-dimethyl-1-{4-methyl-6-[7-(2-methyl-1H-benzimidazol-5-yl)-2,3-dihydro-1,4-benzoxazepin-4(5H)-yl]-5-(2-methylpropyl)pyrimidin-2-yl}methanamine] | 100 to 500 nM
13 | Cc1nc2ncc(-c3ccc4c(c3)CN(c3nc(N)nc5c3CC(C)(C)CC5)CCO4)cc2[nH]1 [Compound 44, 6,6-dimethyl-4-[7-(2-methyl-1H-imidazo[4,5-b]pyridin-6-yl)-2,3-dihydro-1,4-benzoxazepin-4(5H)-yl]-5,6,7,8-tetrahydroquinazolin-2-amine] | ≤ 100 nM
14 | Cc1nc2cc(-c3ccc4c(c3)CN(c3nc(N)nc(C)c3Cc3ccc(F)cc3)CCO4)ccc2[nH]1 [Compound 39, 5-[(4-fluorophenyl)methyl]-4-methyl-6-[7-(2-methyl-1H-benzimidazol-5-yl)-2,3-dihydro-1,4-benzoxazepin-4(5H)-yl]pyrimidin-2-amine] | ≤ 100 nM
15 | Cc1nc(N)nc(N2CCOc3ccc(-c4cnc5[nH]cnc5c4)cc3C2)c1C(C)C [Compound 52, 4-[7-(3H-imidazo[4,5-b]pyridin-6-yl)-2,3-dihydro-1,4-benzoxazepin-4(5H)-yl]-6-methyl-5-(1-methylethyl)pyrimidine-2-amine] | ≤ 100 nM
16 | Cc1nc2cc(-c3ccc4c(c3)CN(c3cc(N)ncc3C#N)CCO4)ccc2[nH]1 [Compound 28, 6-amino-4-[7-(2-methyl-1H-benzimidazol-5-yl)-2,3-dihydro-1,4-benzoxazepin-4(5H)-yl]pyridine-3-carbonitrile] | ≤ 100 nM
17 | Cc1nc2cc(-c3ccc4c(c3)CN(c3nc(NC5CNC5)nc(C)c3C(C)C)CCO4)ccc2[nH]1 [Compound 15, N-azetidin-3-yl-4-methyl-6-[7-(2-methyl-1H-benzimidazol-5-yl)-2,3-dihydro-1,4-benzoxazepin-4(5H)-yl]-5-(1-methylethyl)pyrimidin-2-amine] | ≤ 100 nM
18 | COc1ccc(-c2ccc3c(c2)CN(c2nc(CN(C)C)nc4c2CC(C)(C)CC4)CCO3)cc1C(C)=O [Compound 18, 1-[5-(4-{2-[(dimethylamino)methyl]-6,6-dimethyl-5,6,7,8-tetrahydroquinazolin-4-yl}-2,3,4,5-tetrahydro-1,4-benzoxazepin-7-yl)-2-(methyloxy)phenyl]ethanone] | 100 to 500 nM
19 | CCNc1nc(C)c(Cc2ccc(F)cc2)c(N2CCOc3ccc(-c4ccc5[nH]c(C)nc5c4)cc3C2)n1 [Compound 12, N-ethyl-5-[(4-fluorophenyl)methyl]-4-methyl-6-[7-(2-methyl-1H-benzimidazol-5-yl)-2,3-dihydro-1,4-benzoxazepin-4(5H)-yl]pyrimidin-2-amine] | ≤ 100 nM
20 | Cc1nc2cc(-c3ccc4c(c3)CN(c3nc(CN(C)C)nc(C)c3-c3ccccc3)CCO4)ccc2[nH]1 [Compound 21, N,N-dimethyl-1-{4-methyl-6-[7-(2-methyl-1H-benzimidazol-5-yl)-2,3-dihydro-1,4-benzoxazepin-4(5H)-yl]-5-phenylpyrimidin-2-yl}methanamine] | 100 to 500 nM
21 | COc1ccc(-c2ccc3c(c2)CN(c2nc(CN(C)C)nc4c2CC(C)(C)CC4)CCO3)cc1OC(F)F [Compound 8, 1-{4-[7-{3-[(difluoromethyl)oxy]-4-(methyloxy)phenyl}-2,3-dihydro-1,4-benzoxazepin-4(5H)-yl]-6,6-dimethyl-5,6,7,8-tetrahydroquinazolin-2-yl}-N,N-dimethylmethanamine] | 100 to 500 nM

From patent US20140073628A1, “BENZOXAZEPINES ASN INHIBITORS OF P13K/M TOR AND METHODS OF THEIR USE AND MANUFACTURE” (priority 2010, published 2014)
